In PubChem BioAssay AID248 (DTP/NCI, 2004):
Values joined by “and” are separate entries in the source; they are usually repeats but may differ in a detail not shown here. Equal entries are not always repeated. Toxic doses and inconclusive results are not listed. No stated cut-off is given here; in the data, active means T/C of 150% or more; inactive means T/C below 125%.

Test system: L1210 leukemia ip in BDF1 mice, survival T/C
Test: NCI In Vivo Anticancer Drug Screen. Data for tumor model L1210 Leukemia (intraperitoneal) in B6D2F1 (BDF1) mice
Conditions: endpoint: mean survival time, higher = longer survival
In short: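 Each compound was tested against a transplantable tumor grown in mice. The endpoint was survival, with treated animals benchmarked against vehicle controls as a simple ratio.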

[1] = dose: 50.0 mg/kg/injection, schedule: Q01DX001 (ip), vehicle: carboxymethylcellulose (CMC)
[2] = dose: 100.0 mg/kg/injection, schedule: Q01DX001 (ip), vehicle: carboxymethylcellulose (CMC)
[3] = dose: 200.0 mg/kg/injection, schedule: Q01DX001 (ip), vehicle: carboxymethylcellulose (CMC)
[4] = dose: 400.0 mg/kg/injection, schedule: Q01DX001 (ip), vehicle: carboxymethylcellulose (CMC)
[5] = dose: 100.0 mg/kg/injection, schedule: Q04DX003 (ip), vehicle: saline
[6] = dose: 200.0 mg/kg/injection, schedule: Q04DX003 (ip), vehicle: saline
[7] = dose: 400.0 mg/kg/injection, schedule: Q04DX003 (ip), vehicle: saline
[8] = dose: 10.0 mg/kg/injection, schedule: Q01DX001 (ip), vehicle: saline
[9] = dose: 100.0 mg/kg/injection, schedule: Q04DX003 (ip), vehicle: Klucel (hydroxypropylcellulose) (HPC)
[10] = dose: 200.0 mg/kg/injection, schedule: Q04DX003 (ip), vehicle: Klucel (hydroxypropylcellulose) (HPC)
[11] = dose: 400.0 mg/kg/injection, schedule: Q04DX003 (ip), vehicle: Klucel (hydroxypropylcellulose) (HPC)
[12] = dose: 100.0 mg/kg/injection, schedule: Q01DX001 (ip), vehicle: other
[13] = dose: 200.0 mg/kg/injection, schedule: Q01DX001 (ip), vehicle: other
[14] = dose: 400.0 mg/kg/injection, schedule: Q01DX001 (ip), vehicle: other
[15] = dose: 100.0 mg/kg/injection, schedule: Q01DX001 (ip), vehicle: saline
[16] = dose: 200.0 mg/kg/injection, schedule: Q01DX001 (ip), vehicle: saline
[17] = dose: 400.0 mg/kg/injection, schedule: Q01DX001 (ip), vehicle: saline

Measured: T/C

CC(C)CCCC(C)C1CCC2C3CCC4(C)CCCCC4(C)C3CCC12C (stereo not drawn)
inactive: dose: 100.0 mg/kg/injection, schedule: Q01DX001 (ip), vehicle: Klucel (hydroxypropylcellulose) (HPC) 98 % of control | dose: 200.0 mg/kg/injection, schedule: Q01DX001 (ip), vehicle: Klucel (hydroxypropylcellulose) (HPC) 94 % of control | dose: 400.0 mg/kg/injection, schedule: Q01DX001 (ip), vehicle: Klucel (hydroxypropylcellulose) (HPC) 109 % of control

O=S(=O)(O)CCS(=O)(=O)O
inactive: [1] 97 % of control | [2] 100 % of control | [3] 97 % of control | [4] 97 % of control

CCOC(=O)c1ccc[n+]([O-])c1
inactive: [5] 94 % of control | [6] 95 % of control | [7] 94 % of control

COC(=O)C(N)Cc1ccc(OC)c(N(CCCl)CCCl)c1 (stereo not drawn)
inactive: dose: 0.01 mg/kg/injection, schedule: Q01DX009 (ip), vehicle: saline 106 % of control | dose: 0.02 mg/kg/injection, schedule: Q01DX009 (ip), vehicle: saline 116 % of control | dose: 0.05 mg/kg/injection, schedule: Q01DX009 (ip), vehicle: saline 110 % of control | dose: 0.1 mg/kg/injection, schedule: Q01DX009 (ip), vehicle: saline 121 % of control | dose: 0.62 mg/kg/injection, schedule: Q01DX001 (ip), vehicle: saline 106 % of control | dose: 1.25 mg/kg/injection, schedule: Q01DX001 (ip), vehicle: saline 98 % of control | dose: 1.5 mg/kg/injection, schedule: Q01DX001 (ip), vehicle: carboxymethylcellulose (CMC) 115 % of control | dose: 2.5 mg/kg/injection, schedule: Q01DX001 (ip), vehicle: saline 106 % of control and 122 % of control | dose: 2.9 mg/kg/injection, schedule: Q01DX001 (ip), vehicle: saline 105 % of control | dose: 3.0 mg/kg/injection, schedule: Q01DX001 (ip), vehicle: carboxymethylcellulose (CMC) 120 % of control | dose: 3.0 mg/kg/injection, schedule: Q01DX009 (ip), vehicle: saline 123 % of control | dose: 4.4 mg/kg/injection, schedule: Q01DX001 (ip), vehicle: saline 104 % of control | dose: 4.4 mg/kg/injection, schedule: Q01DX009 (ip), vehicle: saline 108 % of control | dose: 5.0 mg/kg/injection, schedule: Q01DX001 (ip), vehicle: saline 111 % of control and 124 % of control | dose: 6.0 mg/kg/injection, schedule: Q01DX001 (ip), vehicle: carboxymethylcellulose (CMC) 108 % of control | dose: 6.6 mg/kg/injection, schedule: Q01DX001 (ip), vehicle: saline 109 % of control | [8] 107 % of control
active: dose: 0.3 mg/kg/injection, schedule: Q01DX009 (ip), vehicle: saline 155 % of control | dose: 1.5 mg/kg/injection, schedule: Q01DX009 (ip), vehicle: saline 151 % of control | dose: 2.9 mg/kg/injection, schedule: Q01DX009 (ip), vehicle: saline 230 % of control

Cc1c(Cl)c(N(C)S(=O)(=O)c2ccccc2)c(C)c(Cl)c1N(C)S(=O)(=O)c1ccccc1
inactive: [9] 103 % of control | [10] 96 % of control | [11] 95 % of control

O=S(=O)(CCCc1ccccc1)c1ccccc1
inactive: dose: 50.0 mg/kg/injection, schedule: Q01DX001 (ip), vehicle: other 102 % of control | [12] 102 % of control | [9] 98 % of control | [13] 104 % of control | [10] 100 % of control | [14] 116 % of control | [11] 102 % of control

Cc1cc(C(C)(C)C)c(Oc2ccc([N+](=O)[O-])cc2S(=O)(=O)O)c(C(C)(C)C)c1
inactive: dose: 100.0 mg/kg/injection, schedule: Q01DX009 (ip), vehicle: saline with Tween-80 86 % of control | dose: 400.0 mg/kg/injection, schedule: Q01DX009 (ip), vehicle: saline with Tween-80 88 % of control

S=c1nc[nH]c2c1ncn2C1CCCCC1
inactive: dose: 47.0 mg/kg/injection, schedule: Q01DX Z (ip), vehicle: carboxymethylcellulose (CMC) 98 % of control | dose: 94.0 mg/kg/injection, schedule: Q01DX Z (ip), vehicle: carboxymethylcellulose (CMC) 98 % of control | dose: 94.0 mg/kg/injection, schedule: Q01DX Z (oral), vehicle: carboxymethylcellulose (CMC) 108 % of control | dose: 188.0 mg/kg/injection, schedule: Q01DX Z (ip), vehicle: carboxymethylcellulose (CMC) 106 % of control | dose: 188.0 mg/kg/injection, schedule: Q01DX Z (oral), vehicle: carboxymethylcellulose (CMC) 98 % of control | dose: 376.0 mg/kg/injection, schedule: Q01DX Z (ip), vehicle: carboxymethylcellulose (CMC) 102 % of control | dose: 376.0 mg/kg/injection, schedule: Q01DX Z (oral), vehicle: carboxymethylcellulose (CMC) 110 % of control | dose: 752.0 mg/kg/injection, schedule: Q01DX Z (oral), vehicle: carboxymethylcellulose (CMC) 106 % of control

Cc1cccc(Cl)c1NC(=O)C(C)C
inactive: dose: 100.0 mg/kg/injection, schedule: Q01DX009 (ip), vehicle: other 101 % of control | dose: 200.0 mg/kg/injection, schedule: Q01DX009 (ip), vehicle: other 104 % of control | dose: 400.0 mg/kg/injection, schedule: Q01DX009 (ip), vehicle: other 98 % of control

C=CCc1cc(OC)cc(C(=O)c2cccc(OC)c2C#N)c1OC
inactive: [12] 104 % of control and 106 % of control | dose: 100.0 mg/kg/injection, schedule: Q04DX002 (ip), vehicle: other 104 % of control | dose: 100.0 mg/kg/injection, schedule: Q04DX003 (ip), vehicle: other 100 % of control and 92 % of control | [13] 95 % of control and 107 % of control | dose: 200.0 mg/kg/injection, schedule: Q04DX002 (ip), vehicle: other 100 % of control and 92 % of control | dose: 200.0 mg/kg/injection, schedule: Q04DX003 (ip), vehicle: other 100 % of control and 92 % of control | [14] 118 % of control and 90 % of control | dose: 400.0 mg/kg/injection, schedule: Q04DX002 (ip), vehicle: other 88 % of control and 89 % of control | dose: 400.0 mg/kg/injection, schedule: Q04DX003 (ip), vehicle: other 102 % of control and 92 % of control

Nc1ccc(CS(=O)(=O)O)cc1
inactive: dose: 100.0 mg/kg/injection, schedule: Q01DX009 (ip), vehicle: saline 112 % of control | dose: 200.0 mg/kg/injection, schedule: Q01DX009 (ip), vehicle: saline 101 % of control | dose: 400.0 mg/kg/injection, schedule: Q01DX009 (ip), vehicle: saline 101 % of control

CC(=O)c1ccc(C)c2ccccc12
inactive: [15] 101 % of control | [16] 102 % of control | [17] 95 % of control

Cn1c2c(c3ccccc3c1=O)C(=O)c1ccccc1-2
inactive: [1] 94 % of control | [2] 94 % of control | [3] 91 % of control | [4] 91 % of control

CCCCCCCCCCOC(=O)CCN1CC1
inactive: dose: 100.0 mg/kg/injection, schedule: Q04DX003 (ip), vehicle: saline with Tween-80 109 % of control | dose: 200.0 mg/kg/injection, schedule: Q04DX003 (ip), vehicle: saline with Tween-80 96 % of control

COC(=O)C1=CN=NC1=[N+]=[N-]
inactive: [8] 103 % of control | dose: 20.0 mg/kg/injection, schedule: Q01DX001 (ip), vehicle: saline 97 % of control

Cc1ccc(C)c(NC(=O)c2ccc(C(=O)O)cc2C(=O)O)c1
inactive: dose: 100.0 mg/kg/injection, schedule: Q01DX009 (ip), vehicle: Klucel (hydroxypropylcellulose) (HPC) 95 % of control | dose: 100.0 mg/kg/injection, schedule: Q04DX002 (ip), vehicle: Klucel (hydroxypropylcellulose) (HPC) 98 % of control | dose: 200.0 mg/kg/injection, schedule: Q01DX009 (ip), vehicle: Klucel (hydroxypropylcellulose) (HPC) 100 % of control | dose: 200.0 mg/kg/injection, schedule: Q04DX002 (ip), vehicle: Klucel (hydroxypropylcellulose) (HPC) 98 % of control | dose: 400.0 mg/kg/injection, schedule: Q01DX009 (ip), vehicle: Klucel (hydroxypropylcellulose) (HPC) 97 % of control | dose: 400.0 mg/kg/injection, schedule: Q04DX002 (ip), vehicle: Klucel (hydroxypropylcellulose) (HPC) 95 % of control

CC(=O)CC(=O)Nc1ccc(Cc2ccccc2)cc1
inactive: [15] 93 % of control | [16] 94 % of control | [17] 109 % of control

COC(=O)CNC(=O)C1CSC(C)(C)N1C=O (stereo not drawn)
inactive: [5] 104 % of control | [6] 101 % of control | [7] 98 % of control
